Test results from publication PMC3655598, “Application of IgG-Derived Natural Treg Epitopes (IgG Tregitopes) to Antigen-Specific Tolerance Induction in a Murine Model of Type 1 Diabetes” (Journal of Diabetes Research, 2013).
Read-outs that look alike come from different tables or passages of the source. Marks after values point to notes of the source that are not given here. No end group written: not given here.

Tests used:
DRB1*0401 = DRB1*0401 (Homo sapiens, UniProt P01903+P01911, A100K/A169T/F76Y/I96L/K127E/L162R/M171V/N62H/P40V/Q125Y/R42H/S133A/S149N/S66Y/V115G/V209L/W38E); details: read-out: DRB1*0401 IC50; competition with biotin-Flu-HA 306–318 at 0.1 μM, 24 h, 37°C; NB = non-binder
PBMC = experiment: two-step IFNγ ELISpot assay with human PBMC; type: cell-based; details: 7 d pre-culture with GAD65 peptide pool, 48 h restimulation, triplicate;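 further: background is unstimulated wells, counts given per 1 million cells, 200,000–250,000 cells per well, restimulated at 37°C, read by Zeiss plate reader, IL-2 and IL-7 fed during pre-culture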
DRB1*0101 = DRB1*0101 (Homo sapiens, UniProt P01903+P01911, A100R/D57E/F55L/F60I/F76Y/I96L/L162R/M171V/P40L/Q125E/R42F/V115G/Y59C); experiment: biochemical
DRB1*0701 [1] = molecular target: T1, DRB1*0701 (Homo sapiens, UniProt P01903+P01911, A100R/A102G/A103Q/D57E/D86V/E43K/F76Y/K127E/L162R/M171V/P40G/Q125H/Q99D/R33Q/R42Y/R54Q/S133A/S66F/T210M/V115G/Y107V/Y59L/Y89S); experiment: biochemical
DRB1*1501 = molecular target: T2, DRB1*1501 (Homo sapiens, UniProt P01903+P01911); experiment: competition-based HLA binding assay
T2 construct: gift: William Kwok, Benaroya Institute, Seattle

DRB1*0701 [2] = molecular target: T1, DRB1*0701; details: read-out: DRB1*0701 IC50; competition with biotin-Flu-HA 306–318 at 1 μM, 24 h, 37°C; NB = non-binder
[3] = Negative Control 668 PBMC, Tregitope + (5 μg/mL each human Tregitopes 167 and 289)
[4] = Negative Control 668 PBMC, Tregitope −
[5] = Negative Control 669 PBMC, Tregitope + (5 μg/mL each human Tregitopes 167 and 289)
[6] = Negative Control 669 PBMC, Tregitope −
[7] = Negative Control 670 PBMC, Tregitope + (5 μg/mL each human Tregitopes 167 and 289)
[8] = Negative Control 670 PBMC, Tregitope −
[9] = Negative Control 674 PBMC, Tregitope + (5 μg/mL each human Tregitopes 167 and 289)
[10] = Negative Control 674 PBMC, Tregitope −
[11] = Subject D1100H (T1D) PBMC, Tregitope + (5 μg/mL each human Tregitopes 167 and 289)
[12] = Subject D1100H (T1D) PBMC, Tregitope −
[13] = Subject D1101H (T1D) PBMC, Tregitope + (5 μg/mL each human Tregitopes 167 and 289)
[14] = Subject D1101H (T1D) PBMC, Tregitope −
[15] = Subject D1104H (T1D) PBMC, Tregitope + (5 μg/mL each human Tregitopes 167 and 289)
[16] = Subject D1104H (T1D) PBMC, Tregitope −
[17] = Subject D1105H (T1D) PBMC, Tregitope + (5 μg/mL each human Tregitopes 167 and 289)
[18] = Subject D1105H (T1D) PBMC, Tregitope −
[19] = Subject D1106H (T1D) PBMC, Tregitope + (5 μg/mL each human Tregitopes 167 and 289)
[20] = Subject D1106H (T1D) PBMC, Tregitope −
[21] = Subject D1107H (T1D) PBMC, Tregitope + (5 μg/mL each human Tregitopes 167 and 289)
[22] = Subject D1107H (T1D) PBMC, Tregitope −

Substance | IC50 (DRB1*0401) | IFNγ ELISpot SFC over background (PBMC; [3]) | IFNγ ELISpot SFC over background (PBMC; [4]) | IFNγ ELISpot SFC over background (PBMC; [5]) | IFNγ ELISpot SFC over background (PBMC; [6]) | IFNγ ELISpot SFC over background (PBMC; [7]) | IFNγ ELISpot SFC over background (PBMC; [8]) | IFNγ ELISpot SFC over background (PBMC; [9]) | IFNγ ELISpot SFC over background (PBMC; [10]) | IFNγ ELISpot SFC over background (PBMC; [11]) | IFNγ ELISpot SFC over background (PBMC; [12]) | IFNγ ELISpot SFC over background (PBMC; [13]) | IFNγ ELISpot SFC over background (PBMC; [14]) | IFNγ ELISpot SFC over background (PBMC; [15]) | IFNγ ELISpot SFC over background (PBMC; [16]) | IFNγ ELISpot SFC over background (PBMC; [17]) | IFNγ ELISpot SFC over background (PBMC; [18]) | IFNγ ELISpot SFC over background (PBMC; [19]) | IFNγ ELISpot SFC over background (PBMC; [20]) | IC50 (DRB1*0101) | other results
LGDKVNFFRMVISNPAATHQD [GAD65_550–570] | < 25 µM | 440 SFC over BG/10^6 | 312 SFC over BG/10^6 | 30** SFC over BG/10^6 | 144 SFC over BG/10^6 | −90 SFC over BG/10^6 | 25 SFC over BG/10^6 | 431 SFC over BG/10^6 | 490 SFC over BG/10^6 | 141 SFC over BG/10^6 | 199 SFC over BG/10^6 | 100 SFC over BG/10^6 | 126 SFC over BG/10^6 | 101 SFC over BG/10^6 | 146 SFC over BG/10^6 | 228* SFC over BG/10^6 | 352 SFC over BG/10^6 | 113 SFC over BG/10^6 | 88 SFC over BG/10^6 | – | IFNγ ELISpot SFC over background (PBMC; [21]): 1** SFC over BG/10^6; IFNγ ELISpot SFC over background (PBMC; [22]): 160 SFC over BG/10^6
GAISNMYAMMIARFKMFPEVKEKGM [GAD65_243–267] | – | – | – | – | – | – | – | – | – | – | – | – | – | – | – | – | – | – | – | < 5 µM | IC50 (DRB1*0701 [1]): 8.7 µM; IC50 (DRB1*1501): < 5 µM
NMFTYEIAPVFVLLEYVTLKKMRE [GAD65_203–226] | < 25 µM | 460 SFC over BG/10^6 | 475 SFC over BG/10^6 | 52 SFC over BG/10^6 | 109 SFC over BG/10^6 | 82** SFC over BG/10^6 | 329 SFC over BG/10^6 | 109 SFC over BG/10^6 | 168 SFC over BG/10^6 | – | – | 51 SFC over BG/10^6 | 157 SFC over BG/10^6 | 154 SFC over BG/10^6 | 221 SFC over BG/10^6 | 138* SFC over BG/10^6 | 245 SFC over BG/10^6 | 138 SFC over BG/10^6 | 207 SFC over BG/10^6 | – | –
TTVYGAFDPLLAVAD [GAD65_338–352] | > 50 µM | – | – | – | – | – | – | – | – | – | – | – | – | – | – | – | – | – | – | 4.1 µM | IC50 (DRB1*0701 [2]): > 50 µM; IC50 (DRB1*1501; competition with biotin-MBP 84–102 at 0.5 μM, 24 h, 37°C, NB = non-binder, read-out: DRB1*1501 IC50): 31.3 µM
GAD65 protein: whole GAD65 protein (Kronus, UK) | – | – | – | – | – | – | – | 818 SFC over BG/10^6 | 44 SFC over BG/10^6 | 77 SFC over BG/10^6 | 413 SFC over BG/10^6 | 59 SFC over BG/10^6 | 37 SFC over BG/10^6 | 69 SFC over BG/10^6 | 32 SFC over BG/10^6 | – | – | 591 SFC over BG/10^6 | 670 SFC over BG/10^6 | – | IFNγ ELISpot SFC over background (PBMC; [21]): 46 SFC over BG/10^6; IFNγ ELISpot SFC over background (PBMC; [22]): 95 SFC over BG/10^6
VDVFKLWLMWRAKGTTGFEAH [GAD65_450–470] | > 50 µM | – | – | – | – | – | – | – | – | – | – | – | – | – | – | – | – | – | – | 25.4 µM | IC50 (DRB1*0701 [1]): 10.2 µM; IC50 (DRB1*1501): 11.4 µM
